Patent US9949946B2, “Inclusion complexes of pinocembrin with cyclodextrin or its derivatives” (CSPC ZHONGQI PHARMACEUTICAL TECHNOLOGY (SHIJIAZHUANG) CO., …, priority 2008, dated 2018)

Key:
[1] = tested on: MCAO operation-injured rats; assay: MCAO model, rCBF of the rat acute cerebral ischemia tissue; format: in vivo; conditions: 30 minutes after the cerebral ischemia, 3 mg/kg
Protocol: Assay Method: The assay was conducted according to the MCAO model method as reported in the literature (Zhang Juntian, Modern Experimental Methods in Pharmacology, October 1998, the First Edition, the United Press of Beijing Medical University and Peking Union Medical College).
The rCBF (regional cerebral blood flow) value in the cortex medium-sized arterial blood-supplying area reduced rapidly to 20˜30% of the pre-operation basal level because of the MCAO operation. 24 hours after ischemia (pre-decapitation), the collateral circulation compensation established and the rCBF value increased a little compared with the value during the operation, but still below 50% of the basal level.
30 minutes after the cerebral ischemia, the rCBF value of the vehicle group was 31.09±5.35% of the basal value, and the rCBF values of the administration groups, i.e., the inclusion complex DL0108 group (1 mg/kg, 3 mg/kg, 10 mg/kg) and the nimodipine group, were 40.76±6.58%, 50.09±7.09%, 53.28±8.03%, 55.58±6.09% of the basal value respectively. […] The DL0108 (3, 10 mg/kg) group and the nimodipine (3 mg/kg) group had significant differences from the vehicle group (P<0.05).

[2] = Determination of the solubility of pinocembrin; format: physicochemical; conditions: water
Protocol: Through using cyclodextrin or its derivative to include pinocembrin and make pinocembrin molecules entrap in the tubular structure of cyclodextrin or its derivative, and therefore obtain the inclusion complex of pinocembrin with cyclodextrin or its derivative, the water-solubility of pinocembrin is enhanced greatly. […] The specific results are shown in Example 10.
In order to screen solubilizer, cosolvent and non-aqueous solvent useful for injection, a series of experiments were conducted with their general dosages respectively to determine the solubilization effect of pinocembrin.
The solubilities in Table 1 are the solubilities of pinocembrin.

solubility [2] [µg/mL] | SMILES | rCBF value [1]
 | COCCOC(=O)C1=C(C)NC(C)=C(C(=O)OC(C)C)C1c1cccc([N+](=O)[O-])c1 (centres unmarked) [nimodipine] | 55.58±6.09 % of the basal value
< 200 | O=C1CC(c2ccccc2)Oc2cc(O)cc(O)c21 (centres unmarked) [pinocembrin, 2,3-Dihydro-5,7-dihydroxy-2-phenyl-4H-1-benzopyran-4-one] | 
